According to patent publication US11046714B2, “2,2-difluorodioxolo A2A receptor antagonists” (Merck Sharp & Dohme Corp., priority 2013, dated 2021):

The compounds below were run against human A2A receptor (Homo sapiens (Human), UniProt P29274) (assay: competition binding assay using Scintillation Proximity technology). Details: membranes from CHO-K1 cells expressing the human A2a receptor; 2.0 nM tritiated compound; Cheng-Prusoff.
Experimental: The utility of the compounds in accordance with the present invention as A2A receptor antagonists may be readily determined without undue experimentation by methodologies well known in the art, including by a competition binding assay using Scintillation Proximity technology. Briefly, membranes from CHO-K1 cells expressing the human A2A receptor are incubated with a test compound at various concentrations, e.g., ranging from 3000 nM to 0.15 nM, in a reaction mixture also containing a tritiated form of 5-amino-7-[2-phenethyl]-2-(furan-2-yl)-7H-pyrazolo[4,3-e][1,2,4]triazolo[1,5-c]pyrimidine (the tritiated compound) and wheatgerm agglutin-coated yttrium silicate SPA beads at room temperature. The beads are then allowed to settle to the bottom of the wells, after which the membrane-associated radioactivity is determined by scintillation counting in a microplate reader. Ki values can be determined using the Cheng-Prusoff equation.
Thus, 1.0 μg of membranes from CHO-K1 cells expressing the human A2a receptor were incubated with a compound of the invention at concentrations ranging from 3000 nM to 0.15 nM in a reaction mixture also containing 2.0 nM of a tritiated form of 5-amino-7-[2-phenethyl]-2-(furan-2-yl)-7H-pyrazolo[4,3-e][1,2,4]triazolo[1,5-c]pyrimidine (the tritiated compound) and 100 μg of wheatgerm agglutin-coated yttrium silicate SPA beads for one hour at room temperature with agitation. The beads were then allowed to settle to the bottom of the wells for 1 hr, after which the membrane-associated radioactivity was determined by scintillation counting in a TopCount microplate reader. Ki values were determined using the Cheng-Prusoff equation.
Summary of Materials and Methods Used in A2a Activity Determination:
• Membranes from CHO-K1 cells expressing the human Adenosine2A receptor (Perkin-Elmer #RBHA2AM400UA). • The tritiated compound was prepared according to published methods. • Wheatgerm agglutinin-coated yttrium silicate SPA beads (GE Healthcare #RPNQ0023). Dilute to 25 mg/ml in Assay Buffer. • Assay Buffer: Dulbecco's calcium and magnesium free phosphate buffered saline+10 mM MgCl2 • Adenosine deaminase (ADA) from calf intestine, 10 mg/2 ml (Roche #10 102 105 001). • DMSO • A2a antagonist standard (9-chloro-1-(2-furanyl)-[1,2,4]triazolo[1,5-c]quinazolin-5-amine from Tocris Bioscience) Compound Dilution • Make eight 1:3 serial dilutions in 100% DMSO from a 3 mM compound stock. • Transfer 50 nL of compound into a 384-well OptiPlate (Perkin Elmer). • Typically, final concentrations of compound used in the assay ranged from 3000 nM to 0.152 nM. Radioisotope • Dilute a solution of the tritiated compound to 5.0 nM in assay buffer. This is a 2.5× solution. The final concentration in the assay is 2.0 nM. Calculate the concentration by counting two 5 μL aliquots. Membrane Preparation • Use 1.0 μg of membrane/well. Dilute membranes to 33 μg/mL in assay buffer. Treat with 20 μg/mL ADA for 15 minutes at room temperature to degrade endogenous adenosine. Membrane-Bead Mixture • Use 100 μg/well wheatgerm agglutinin-coated yttrium silicate SPA beads. • Mix ADA-treated membranes and SPA beads together for 30 min prior to assay. Assay Assembly • To the Perkin-Elmer Optiplate-384 containing the compound titration add 20 μL of 2.5× solution of the tritiated compound and 30 μL of the membrane-bead mixture. Incubate for one hour at room temperature with agitation. • Include total binding (assay buffer+1% DMSO) and non-specific binding (CGS 15943, 1 μM) wells. Counting • Allow the beads to settle for one hour. • Count in TopCount. Calculations • A curve fitting program (i.e., Prism, Activity Base, Chemcart) is used to determine the EC50. The Ki value is calculated using the Cheng-Prusoff equation. Ki=EC50/(1+(radioligand concentration/Kd))

Chain of human A2A receptor (P29274 whole entry): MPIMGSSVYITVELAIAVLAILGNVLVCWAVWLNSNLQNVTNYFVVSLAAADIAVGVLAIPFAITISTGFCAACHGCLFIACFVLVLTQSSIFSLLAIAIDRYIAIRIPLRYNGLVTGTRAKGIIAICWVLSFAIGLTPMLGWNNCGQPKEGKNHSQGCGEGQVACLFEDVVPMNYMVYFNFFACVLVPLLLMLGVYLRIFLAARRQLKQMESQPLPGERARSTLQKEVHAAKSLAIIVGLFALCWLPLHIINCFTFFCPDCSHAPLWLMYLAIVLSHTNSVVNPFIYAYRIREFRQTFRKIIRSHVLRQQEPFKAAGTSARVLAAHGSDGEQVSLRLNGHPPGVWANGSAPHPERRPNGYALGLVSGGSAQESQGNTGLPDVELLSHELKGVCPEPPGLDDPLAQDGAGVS

SMILES | Ki
Nc1nc2c3c(ccc2c2nc(CC(C(F)F)N4Cc5cccnc5C4)nn12)OC(F)(F)O3 (single isomer, unassigned) [Example 97, (R or S)-8-(3,3-difluoro-2-(5H-pyrrolo[3,4-b]pyridin-6(7H)-yl)propyl)-2,2-difluoro-[1,3]dioxolo[4,5-h][1,2,4]triazolo[1,5-c]quinazolin-5-amine] | 2.2 nM
Nc1nc2c3c(ccc2c2nc(CC(C(F)F)N4Cc5cccnc5C4)nn12)OC(F)(F)O3 (single isomer, unassigned) [Example 98, (R or S)-8-(3,3-difluoro-2-(5H-pyrrolo[3,4-b]pyridin-6(7H)-yl)propyl)-2,2-difluoro-[1,3]dioxolo[4,5-h][1,2,4]triazolo[1,5-c]quinazolin-5-amine] | 6.6 nM
Nc1nc2c3c(ccc2c2nc(C4CCCN(CCC(F)(F)F)C4)nn12)OC(F)(F)O3 (single isomer, unassigned) [Example 140, (R or S)-2,2-difluoro-8-(1-(3,3,3-trifluoropropyl)piperidin-3-yl)-[1,3]dioxolo[4,5-h][1,2,4]triazolo[1,5-c]quinazolin-5-amine] | 0.8 nM
Nc1nc2c3c(ccc2c2nc(C4CCCN(CCC(F)(F)F)C4)nn12)OC(F)(F)O3 (single isomer, unassigned) [Example 141, (R or S)-2,2-difluoro-8-(1-(3,3,3-trifluoropropyl)piperidin-3-yl)-[1,3]dioxolo[4,5-h][1,2,4]triazolo[1,5-c]quinazolin-5-amine] | 55 nM
Nc1nc2c3c(ccc2c2nc(C4CCCN(c5cccc(F)c5)C4)nn12)OC(F)(F)O3 (single isomer, unassigned) [Example 142, (R or S)-2,2-difluoro-8-[1-(3-fluorophenyl)piperidin-3-yl][1,3]dioxolo[4,5-h][1,2,4]triazolo[1,5-c]quinazolin-5-amine] | 1.2 nM
Nc1nc2c3c(ccc2c2nc(C4CCCN(c5cccc(F)c5)C4)nn12)OC(F)(F)O3 (single isomer, unassigned) [Example 143, (R or S)-2,2-difluoro-8-[1-(3-fluorophenyl)piperidin-3-yl][1,3]dioxolo[4,5-h][1,2,4]triazolo[1,5-c]quinazolin-5-amine] | 59 nM
Nc1nc2c3c(ccc2c2nc(C4CCCN(c5cc(F)cc(F)c5)C4)nn12)OC(F)(F)O3 (single isomer, unassigned) [Example 144, (R or S)-8-[1-(3,5-difluorophenyl)piperidin-3-yl]-2,2-difluoro[1,3] dioxolo[4,5-h][1,2,4]triazolo[1,5-c]quinazolin-5-amine] | 1.2 nM
Nc1nc2c3c(ccc2c2nc(C4CCCN(c5cc(F)cc(F)c5)C4)nn12)OC(F)(F)O3 (single isomer, unassigned) [Example 145, (R or S)-8-[1-(3,5-difluorophenyl)piperidin-3-yl]-2,2-difluoro[1,3] dioxolo[4,5-h][1,2,4]triazolo[1,5-c]quinazolin-5-amine] | 140 nM
Nc1nc2c3c(ccc2c2nc(C4CCCN(c5cncnc5)C4)nn12)OC(F)(F)O3 (single isomer, unassigned) [Example 146, (R or S)-2,2-difluoro-8-(1-pyrimidin-5-ylpiperidin-3-yl)[1,3]dioxolo[4,5-h][1,2,4]triazolo[1,5-c]quinazolin-5-amine] | 44 nM
Nc1nc2c3c(ccc2c2nc(C4CCCN(c5cncnc5)C4)nn12)OC(F)(F)O3 (single isomer, unassigned) [Example 147, (R or S)-2,2-difluoro-8-(1-pyrimidin-5-ylpiperidin-3-yl)[1,3]dioxolo[4,5-h][1,2,4]triazolo[1,5-c]quinazolin-5-amine] | 2.9 nM
Nc1nc2c3c(ccc2c2nc(CC4CCN(CCC(F)(F)F)C4)nn12)OC(F)(F)O3 (single isomer, unassigned) [Example 154, (R or S)-2,2-difluoro-8-{[1-(3,3,3-trifluoropropyl)pyrrolidin-3-yl]methyl}[1,3]dioxolo[4,5-h][1,2,4]triazolo[1,5-c]quinazolin-5-amine] | 20 nM
Nc1nc2c3c(ccc2c2nc(CC4CCN(CCC(F)(F)F)C4)nn12)OC(F)(F)O3 (single isomer, unassigned) [Example 155, (R or S)-2,2-difluoro-8-{[1-(3,3,3-trifluoropropyl)pyrrolidin-3-yl]methyl}[1,3]dioxolo[4,5-h][1,2,4]triazolo[1,5-c]quinazolin-5-amine] | 7.2 nM
COCCN1CCC(Cc2nc3c4ccc5c(c4nc(N)n3n2)OC(F)(F)O5)C1 (single isomer, unassigned) [Example 157, (R or S)-2,2-difluoro-8-{[1-(2-methoxyethyl)pyrrolidin-3-yl]methyl}[1,3]dioxolo [4,5-h][1,2,4]triazolo[1,5-c]quinazolin-5-amine] | 75 nM
Nc1nc2c3c(ccc2c2ncnn12)OC(F)(F)O3 [Example 1, 2,2-difluoro-[1,3]dioxolo[4,5-h][1,2,4]triazolo[1,5-c]quinazolin-5-amine] | 12 nM

Further lines, results first:

Ki | SMILES
130 nM | CC(c1nc2c3ccc4c(c3nc(N)n2n1)OC(F)(F)O4)N1CC(F)(F)C1 (single isomer, unassigned) [Example 131, (R or S)-8-[1-(3,3-difluoroazetidin-1-yl)ethyl]-2,2-difluoro[1,3]dioxolo [4,5-h][1,2,4]triazolo[1,5-c]quinazolin-5-amine]
56 nM | CC(c1nc2c3ccc4c(c3nc(N)n2n1)OC(F)(F)O4)N1CC(F)(F)C1 (single isomer, unassigned) [Example 132, (R or S)-8-[1-(3,3-difluoroazetidin-1-yl)ethyl]-2,2-difluoro[1,3]dioxolo [4,5-h][1,2,4]triazolo[1,5-c]quinazolin-5-amine]
64 nM | CC(c1nc2c3ccc4c(c3nc(N)n2n1)OC(F)(F)O4)N1C[C@H](F)[C@@H](F)C1 (single isomer, unassigned) [Example 133, (R or S)-8-{1-[(3S,4S)-3,4-difluoropyrrolidin-1-yl]ethyl}-2,2-difluoro[1,3]dioxolo[4,5-h][1,2,4]triazolo[1,5-c]quinazolin-5-amine]
24 nM | CC(c1nc2c3ccc4c(c3nc(N)n2n1)OC(F)(F)O4)N1C[C@H](F)[C@@H](F)C1 (single isomer, unassigned) [Example 134, (R or S)-8-{1-[(3S,4S)-3,4-difluoropyrrolidin-1-yl]ethyl}-2,2-difluoro[1,3]dioxolo[4,5-h][1,2,4]triazolo[1,5-c]quinazolin-5-amine]
89 nM | CC(c1nc2c3ccc4c(c3nc(N)n2n1)OC(F)(F)O4)N1CCCC(F)(F)C1 (single isomer, unassigned) [Example 135, 8-[(1S or 1R)-1-(3,3-difluoropiperidin-1-yl)ethyl]-2,2-difluoro[1,3]dioxolo [4,5-h][1,2,4]triazolo[1,5-c] quinazolin-5-amine]
25 nM | CC(c1nc2c3ccc4c(c3nc(N)n2n1)OC(F)(F)O4)N1CCCC(F)(F)C1 (single isomer, unassigned) [Example 136, 8-[(1S or 1R)-1-(3,3-difluoropiperidin-1-yl)ethyl]-2,2-difluoro[1,3]dioxolo [4,5-h][1,2,4]triazolo[1,5-c] quinazolin-5-amine]
5.3 nM | Nc1nc2c3c(ccc2c2nc(CC4CCN(CC(F)F)C4)nn12)OC(F)(F)O3 (single isomer, unassigned) [Example 156, (R or S)-8-{[1-(2,2-difluoroethyl)pyrrolidin-3-yl]methyl}-2,2-difluoro[1,3]dioxolo[4,5-h][1,2,4]triazolo[1,5-c]quinazolin-5-amine]
